Data as given in ChEMBL document CHEMBL4507276 (2021).

Columns and labels:
[1] = target: D(1A) dopamine receptor (Homo sapiens) (UniProt P21728); assay: D1/H Cerep selectivity data (BI); conditions: filed as antagonist, Compound concentration 20.0 uM
[2] = target: Kappa-type opioid receptor (Rattus norvegicus) (UniProt P34975); assay: KAPPA/R Cerep selectivity data (BI); conditions: Compound concentration 20.0 uM
[3] = target: Sodium-dependent noradrenaline transporter (Homo sapiens) (UniProt P23975); assay: NETRANS/H Eurofins-Panlabs selectivity data (BI); conditions: Compound concentration 10.0 uM
[4] = target: Protein kinase C alpha type (Mus musculus) (UniProt P20444); assay: PHORBOLE/M Eurofins-Panlabs selectivity data (BI); conditions: Compound concentration 10.0 uM
[5] = target: Neuropeptide Y receptor type 2 (Homo sapiens) (UniProt P49146); assay: Y2/HU Eurofins-Panlabs selectivity data (BI); conditions: Compound concentration 10.0 uM
Sequence of Neuropeptide Y receptor type 2 (Homo sapiens) (P49146 whole entry): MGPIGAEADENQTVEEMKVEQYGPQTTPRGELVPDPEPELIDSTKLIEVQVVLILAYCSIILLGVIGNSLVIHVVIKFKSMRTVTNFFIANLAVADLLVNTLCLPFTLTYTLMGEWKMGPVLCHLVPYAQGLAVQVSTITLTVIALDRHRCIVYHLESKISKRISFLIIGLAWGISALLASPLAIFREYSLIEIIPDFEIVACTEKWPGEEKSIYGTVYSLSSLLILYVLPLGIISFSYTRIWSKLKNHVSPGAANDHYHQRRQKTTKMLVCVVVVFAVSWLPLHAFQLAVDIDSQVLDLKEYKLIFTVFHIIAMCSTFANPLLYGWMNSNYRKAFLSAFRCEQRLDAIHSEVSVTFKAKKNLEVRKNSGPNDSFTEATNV

[6] = target: Calcium/calmodulin-dependent protein kinase type 1 (Homo sapiens) (UniProt Q14012); assay: CAMK1_A Invitrogen selectivity data (BI); conditions: Compound concentration 3.0 uM
Sequence of Calcium/calmodulin-dependent protein kinase type 1 (Homo sapiens) (Q14012 whole entry, looked up): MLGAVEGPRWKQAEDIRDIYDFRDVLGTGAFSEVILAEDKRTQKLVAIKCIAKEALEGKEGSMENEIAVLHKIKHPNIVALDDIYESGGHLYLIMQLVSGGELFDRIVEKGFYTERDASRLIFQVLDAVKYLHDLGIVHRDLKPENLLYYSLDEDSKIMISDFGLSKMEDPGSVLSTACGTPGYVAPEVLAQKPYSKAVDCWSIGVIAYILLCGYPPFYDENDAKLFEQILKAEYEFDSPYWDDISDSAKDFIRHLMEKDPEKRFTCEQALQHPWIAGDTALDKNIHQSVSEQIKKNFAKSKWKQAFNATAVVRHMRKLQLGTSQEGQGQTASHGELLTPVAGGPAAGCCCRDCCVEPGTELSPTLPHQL

[7] = target: Tyrosine-protein kinase Lck (Homo sapiens) (UniProt P06239); assay: LCK Invitrogen selectivity data (BI); conditions: Compound concentration 3.0 uM
Sequence of Tyrosine-protein kinase Lck (Homo sapiens) (P06239 2-509 limits assumed): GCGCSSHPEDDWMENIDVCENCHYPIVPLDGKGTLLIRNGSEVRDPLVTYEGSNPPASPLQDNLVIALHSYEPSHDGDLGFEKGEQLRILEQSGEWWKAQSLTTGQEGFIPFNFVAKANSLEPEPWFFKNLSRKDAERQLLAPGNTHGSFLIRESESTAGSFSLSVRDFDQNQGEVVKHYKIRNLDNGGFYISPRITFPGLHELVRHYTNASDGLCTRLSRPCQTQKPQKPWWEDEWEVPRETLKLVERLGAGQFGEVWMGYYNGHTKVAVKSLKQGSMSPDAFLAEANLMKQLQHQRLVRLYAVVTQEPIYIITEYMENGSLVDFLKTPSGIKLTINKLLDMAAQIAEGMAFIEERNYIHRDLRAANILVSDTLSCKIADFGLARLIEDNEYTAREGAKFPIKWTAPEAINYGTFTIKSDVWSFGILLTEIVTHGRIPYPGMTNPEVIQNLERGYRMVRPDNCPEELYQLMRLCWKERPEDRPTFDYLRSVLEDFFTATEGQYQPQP

[8] = target: T1, Dual specificity mitogen-activated protein kinase kinase 3 (Homo sapiens) (UniProt P46734); assay: MAP2K3 Invitrogen selectivity data (BI); conditions: Compound concentration 3.0 uM
T1 sequence (whole entry): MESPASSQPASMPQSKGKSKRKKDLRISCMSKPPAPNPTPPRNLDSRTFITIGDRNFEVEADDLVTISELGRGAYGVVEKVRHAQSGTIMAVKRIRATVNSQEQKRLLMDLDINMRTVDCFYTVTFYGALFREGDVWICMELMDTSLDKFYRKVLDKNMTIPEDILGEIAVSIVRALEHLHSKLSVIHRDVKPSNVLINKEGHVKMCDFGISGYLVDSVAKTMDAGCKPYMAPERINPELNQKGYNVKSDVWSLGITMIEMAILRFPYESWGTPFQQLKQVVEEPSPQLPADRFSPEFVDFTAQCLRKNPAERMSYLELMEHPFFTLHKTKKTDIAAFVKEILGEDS

[9] = target: T2, Megakaryocyte-associated tyrosine-protein kinase (Homo sapiens) (UniProt P42679); assay: MATK Invitrogen selectivity data (BI); conditions: Compound concentration 3.0 uM
T2 sequence (whole entry): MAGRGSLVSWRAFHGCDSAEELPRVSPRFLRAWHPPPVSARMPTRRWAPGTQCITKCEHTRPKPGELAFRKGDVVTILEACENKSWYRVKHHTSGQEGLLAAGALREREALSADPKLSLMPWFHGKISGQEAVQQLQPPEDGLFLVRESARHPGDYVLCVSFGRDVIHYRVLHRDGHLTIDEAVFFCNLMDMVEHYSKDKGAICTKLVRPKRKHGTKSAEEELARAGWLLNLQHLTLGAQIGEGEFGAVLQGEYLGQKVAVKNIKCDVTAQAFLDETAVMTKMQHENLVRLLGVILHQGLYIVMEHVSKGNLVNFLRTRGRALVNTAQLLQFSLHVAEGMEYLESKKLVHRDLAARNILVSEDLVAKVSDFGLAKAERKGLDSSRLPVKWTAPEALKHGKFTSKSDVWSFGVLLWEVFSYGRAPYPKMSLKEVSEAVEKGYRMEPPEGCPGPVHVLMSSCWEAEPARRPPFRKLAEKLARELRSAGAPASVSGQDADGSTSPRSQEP

[10] = target: MAP kinase-interacting serine/threonine-protein kinase 1 (Homo sapiens) (UniProt Q9BUB5); assay: MKNK1 Invitrogen selectivity data (BI); conditions: Compound concentration 3.0 uM
Sequence of MAP kinase-interacting serine/threonine-protein kinase 1 (Homo sapiens) (Q9BUB5 whole entry, looked up): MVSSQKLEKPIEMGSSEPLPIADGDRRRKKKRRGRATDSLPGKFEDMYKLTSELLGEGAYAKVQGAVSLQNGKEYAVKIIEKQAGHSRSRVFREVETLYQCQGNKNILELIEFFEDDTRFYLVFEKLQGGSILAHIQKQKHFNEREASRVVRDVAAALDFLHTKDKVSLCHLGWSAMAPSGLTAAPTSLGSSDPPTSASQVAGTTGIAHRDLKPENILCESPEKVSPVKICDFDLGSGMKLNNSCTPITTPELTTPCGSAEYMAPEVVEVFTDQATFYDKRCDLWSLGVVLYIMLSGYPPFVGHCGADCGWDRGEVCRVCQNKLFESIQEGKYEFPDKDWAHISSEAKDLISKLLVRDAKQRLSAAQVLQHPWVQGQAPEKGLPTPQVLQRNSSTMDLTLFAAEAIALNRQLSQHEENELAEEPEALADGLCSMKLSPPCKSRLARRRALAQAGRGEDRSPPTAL

[11] = target: Serine/threonine-protein kinase 26 (Homo sapiens) (UniProt Q9P289); assay: MST4 Invitrogen selectivity data (BI); conditions: Compound concentration 3.0 uM
Sequence of Serine/threonine-protein kinase 26 (Homo sapiens) (Q9P289 2-416 limits assumed): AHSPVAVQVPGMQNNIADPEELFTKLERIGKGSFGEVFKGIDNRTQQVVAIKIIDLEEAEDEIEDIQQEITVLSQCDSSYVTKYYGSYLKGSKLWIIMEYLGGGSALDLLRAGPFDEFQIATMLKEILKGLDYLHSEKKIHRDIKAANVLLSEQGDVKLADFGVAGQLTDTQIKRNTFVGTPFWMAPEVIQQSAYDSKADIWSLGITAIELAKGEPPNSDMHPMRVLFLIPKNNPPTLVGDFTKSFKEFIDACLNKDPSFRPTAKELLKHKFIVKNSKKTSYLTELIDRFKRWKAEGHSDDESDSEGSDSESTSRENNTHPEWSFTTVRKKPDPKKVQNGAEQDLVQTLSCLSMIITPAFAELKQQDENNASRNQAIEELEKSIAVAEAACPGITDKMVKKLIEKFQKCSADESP

[12] = target: Serine/threonine-protein kinase Nek7 (Homo sapiens) (UniProt Q8TDX7); assay: NEK7 Invitrogen selectivity data (BI); conditions: Compound concentration 3.0 uM
Sequence of Serine/threonine-protein kinase Nek7 (Homo sapiens) (Q8TDX7 whole entry, looked up): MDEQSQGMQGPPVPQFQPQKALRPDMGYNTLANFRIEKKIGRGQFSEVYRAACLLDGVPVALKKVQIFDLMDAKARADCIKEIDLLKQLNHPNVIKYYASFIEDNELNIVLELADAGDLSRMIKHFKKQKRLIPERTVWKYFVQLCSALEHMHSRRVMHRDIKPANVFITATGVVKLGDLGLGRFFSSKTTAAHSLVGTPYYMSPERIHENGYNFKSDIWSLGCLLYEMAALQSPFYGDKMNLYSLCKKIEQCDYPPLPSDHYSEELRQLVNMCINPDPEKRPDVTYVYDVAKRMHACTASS

[13] = target: T3, Serine/threonine-protein kinase Nek9 (Homo sapiens) (UniProt Q8TD19); assay: NEK9 Invitrogen selectivity data (BI); conditions: Compound concentration 3.0 uM
T3 sequence (whole entry): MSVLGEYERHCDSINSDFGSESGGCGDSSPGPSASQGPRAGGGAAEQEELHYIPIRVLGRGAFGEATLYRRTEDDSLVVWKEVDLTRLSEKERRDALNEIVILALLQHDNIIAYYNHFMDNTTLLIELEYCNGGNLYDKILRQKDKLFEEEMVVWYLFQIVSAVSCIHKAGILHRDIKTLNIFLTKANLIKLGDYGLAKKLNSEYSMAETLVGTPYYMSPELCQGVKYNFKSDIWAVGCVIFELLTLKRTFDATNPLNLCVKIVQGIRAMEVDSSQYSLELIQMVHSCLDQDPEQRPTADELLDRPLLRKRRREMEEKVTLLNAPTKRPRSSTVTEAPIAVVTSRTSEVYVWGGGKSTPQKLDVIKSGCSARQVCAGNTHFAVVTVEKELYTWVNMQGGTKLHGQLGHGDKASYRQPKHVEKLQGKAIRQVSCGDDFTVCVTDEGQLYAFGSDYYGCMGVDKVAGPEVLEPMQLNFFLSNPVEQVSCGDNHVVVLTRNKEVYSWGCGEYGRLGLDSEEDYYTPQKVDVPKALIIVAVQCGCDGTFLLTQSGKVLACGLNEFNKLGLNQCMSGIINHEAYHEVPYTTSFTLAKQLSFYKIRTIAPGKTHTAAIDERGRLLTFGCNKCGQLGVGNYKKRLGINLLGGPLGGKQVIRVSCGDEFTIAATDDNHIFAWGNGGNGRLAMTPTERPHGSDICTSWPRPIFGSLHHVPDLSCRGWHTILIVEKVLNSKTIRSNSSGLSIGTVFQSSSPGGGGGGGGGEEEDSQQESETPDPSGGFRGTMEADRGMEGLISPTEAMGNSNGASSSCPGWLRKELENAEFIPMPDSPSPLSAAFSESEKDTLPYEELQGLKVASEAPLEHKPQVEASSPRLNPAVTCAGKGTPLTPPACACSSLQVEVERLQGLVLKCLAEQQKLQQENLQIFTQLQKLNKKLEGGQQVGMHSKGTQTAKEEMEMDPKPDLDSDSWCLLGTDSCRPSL

[14] = target: Phosphatidylinositol 3-kinase catalytic subunit type 3 (Homo sapiens) (UniProt Q8NEB9); assay: PIK3C3 Invitrogen selectivity data (BI); conditions: Compound concentration 3.0 uM
Sequence of Phosphatidylinositol 3-kinase catalytic subunit type 3 (Homo sapiens) (Q8NEB9 whole entry): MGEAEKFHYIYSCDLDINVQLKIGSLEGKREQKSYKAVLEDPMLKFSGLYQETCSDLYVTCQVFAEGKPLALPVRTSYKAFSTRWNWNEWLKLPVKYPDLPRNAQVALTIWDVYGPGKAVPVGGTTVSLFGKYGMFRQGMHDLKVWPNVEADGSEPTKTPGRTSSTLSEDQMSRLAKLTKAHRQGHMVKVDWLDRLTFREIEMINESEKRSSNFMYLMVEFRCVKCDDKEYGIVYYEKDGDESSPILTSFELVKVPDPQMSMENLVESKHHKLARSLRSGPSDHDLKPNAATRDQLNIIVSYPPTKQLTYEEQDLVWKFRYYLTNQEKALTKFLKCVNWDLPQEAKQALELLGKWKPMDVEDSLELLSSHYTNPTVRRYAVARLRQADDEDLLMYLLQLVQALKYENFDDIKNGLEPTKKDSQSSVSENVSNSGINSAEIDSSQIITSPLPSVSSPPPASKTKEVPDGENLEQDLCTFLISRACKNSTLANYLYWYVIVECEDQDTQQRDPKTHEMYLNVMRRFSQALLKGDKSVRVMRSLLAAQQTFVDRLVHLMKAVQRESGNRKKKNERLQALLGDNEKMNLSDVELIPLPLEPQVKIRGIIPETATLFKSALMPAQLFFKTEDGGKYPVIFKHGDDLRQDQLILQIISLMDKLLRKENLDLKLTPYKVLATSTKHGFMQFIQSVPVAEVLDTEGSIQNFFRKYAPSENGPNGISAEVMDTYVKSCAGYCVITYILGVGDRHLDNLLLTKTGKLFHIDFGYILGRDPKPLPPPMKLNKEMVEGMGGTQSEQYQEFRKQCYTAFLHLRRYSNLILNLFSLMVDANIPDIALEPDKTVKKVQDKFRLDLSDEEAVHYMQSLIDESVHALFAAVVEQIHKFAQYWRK

Measured: residual activity

Sequence of D(1A) dopamine receptor (Homo sapiens) (P21728 whole entry): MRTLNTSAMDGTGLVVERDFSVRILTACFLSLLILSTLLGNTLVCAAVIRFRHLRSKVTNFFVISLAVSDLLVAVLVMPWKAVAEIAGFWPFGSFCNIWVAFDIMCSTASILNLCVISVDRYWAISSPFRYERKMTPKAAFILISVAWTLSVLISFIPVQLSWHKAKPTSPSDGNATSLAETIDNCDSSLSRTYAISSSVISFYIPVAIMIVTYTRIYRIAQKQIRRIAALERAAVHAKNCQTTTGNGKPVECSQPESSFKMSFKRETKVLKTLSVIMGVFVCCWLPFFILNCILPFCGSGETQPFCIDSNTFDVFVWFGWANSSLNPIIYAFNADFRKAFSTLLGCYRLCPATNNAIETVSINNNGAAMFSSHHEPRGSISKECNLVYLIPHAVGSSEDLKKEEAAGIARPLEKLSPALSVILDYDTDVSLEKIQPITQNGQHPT
Sequence of Kappa-type opioid receptor (Rattus norvegicus) (P34975 whole entry): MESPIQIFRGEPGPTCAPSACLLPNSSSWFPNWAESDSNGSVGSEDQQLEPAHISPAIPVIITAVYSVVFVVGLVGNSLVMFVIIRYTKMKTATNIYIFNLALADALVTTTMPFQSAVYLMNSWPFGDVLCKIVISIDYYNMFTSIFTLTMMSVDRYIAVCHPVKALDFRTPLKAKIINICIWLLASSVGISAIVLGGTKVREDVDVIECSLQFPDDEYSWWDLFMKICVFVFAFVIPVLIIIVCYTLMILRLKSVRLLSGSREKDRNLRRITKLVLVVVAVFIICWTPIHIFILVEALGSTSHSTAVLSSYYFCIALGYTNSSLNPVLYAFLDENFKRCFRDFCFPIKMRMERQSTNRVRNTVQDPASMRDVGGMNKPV

CN(C)C(=O)Cn1cc(-c2nc([C@@](C)(c3ccc(-c4cnc(N)nc4)cc3)C3CC3)no2)cn1 [BI 665915]
inactive: [1] 98% | [2] 91% | [3] 103% | [4] 104% | [5] 97% | [6] 102% | [7] 91.5% | [8] 101% | [9] 97.5% | [10] 99% | [11] 99% | [12] 99% | [13] 106% | [14] 94.5%
